Measured values as given in publication PMC6566782, “Prodrugs for Skin Delivery of Menahydroquinone-4, an Active Form of Vitamin K2(20), Could Overcome the Photoinstability and Phototoxicity of Vitamin K2(20)” (International Journal of Molecular Sciences, 2019).
Structures can show the parent of a compound that is named as a salt. Where two headings read alike, the source gives them in different places.

Tests used:
[1] = test system: HaCaT cells; test: Cell viability assay (CellTiter-Glo) 24 h after UVA irradiation; format: cell-based, Human; conditions: 24 h after UVA irradiation 15 J/cm^2
Protocol: (§1) The in vitro phototoxicity of MK-4 and MKH derivatives were assessed by measuring the intracellular ROS generation and the viability of human epidermal keratinocyte cells (HaCaT) after UVA irradiation in the presence or absence of MK-4 and MKH derivatives. Intracellular ROS generation was determined using the cell permeable probe 2′,7′-dichlorofluorescein diacetate (DCFH-DA), which rapidly reacts with hydroxyl radicals. Cells without drug treatment or UVA irradiation were used as the control. ROS generation and cell viability are shown in Figure 5 and Figure 6, respectively.
HaCaT cells were seeded at 1.0 × 10^5 cells/well in 96-well plates and cultured overnight. Thereafter, cells were washed with PBS, and test compound solutions in PBS described above were added to each well and re-incubated for 1 h. After incubation, cells were irradiated with UVA at an irradiation intensity of 15 J/cm^2. After irradiation, cells were washed twice with PBS and replaced in culture medium. After 24 h incubation, cell viability was measured using a CellTiter-Glo® Luminescent Cell Viability Assay (Promega, Madison, WI, USA).

[2] = design: method as in PMID 7724483; conditions: physiological pH 7.4 ref 14; cited from earlier work
[3] = test system: hepatocellular carcinoma (HCC) cells; design: method as in PMID 30013007; conditions: compared with MK-4 ref 17; cited from earlier work
[4] = test system: HaCaT cells; test: Intracellular ROS generation assay (DCFH-DA) with or without UVA irradiation; format: cell-based, Human; conditions: UVA irradiation 15 J/cm^2
Protocol: as §1
Intracellular ROS generation was measured using 2′,7′-dichlorofluorescein diacetate (DCFH-DA; Invitrogen, Carlsbad, CA, USA) as a fluorescent probe. HaCaT cells were seeded at 1.0 × 10^5 cells/well in 96-well plates and cultured overnight. Thereafter, cells were washed with PBS and incubated with 10 µM DCFH-DA solution in PBS at 37 °C for 1 h. Following incubation, test compound solutions in PBS described above were added to each well and re-incubated for 1 h. After incubation, cells were irradiated with UVA at an irradiation intensity of 15 J/cm^2 and the fluorescence intensity (Ex: 485 nm, Em: 530 nm) was measured using an Infinite M200 PRO (Tecan Life Sciences).

[5] = Singlet oxygen generation assay (p-nitrosodimethylaniline-based ROS assay) after UVA irradiation; format: physicochemical; conditions: phosphate-buffered aqueous solution pH 7.4, UVA irradiation 0–15 J/cm^2
Protocol: It has been reported that singlet oxygen promotes the peroxidation of skin surface lipids, resulting in the induction of skin inflammation. Thus, we measured the irradiation intensity-dependent generation of singlet oxygen by MK-4, MKH-DMG, and MKH-SUC in phosphate-buffered aqueous solution after UVA irradiation using a p-nitrosodimethylaniline-based ROS assay (Figure 4).
MK-4 and MKH derivatives were dissolved in a phosphate buffer (NaPB, pH 7.4) containing 0.2% polyoxyethylene hydrogenated castor oil 40 (HCO 40, obtained as a gift sample from Nikko Chemicals Co., Ltd., Osaka, Japan), 2% dimethyl sulfoxide, and 0.1% glycerol. The solutions were treated according to the singlet oxygen assay method (The Japanese Center for the Validation of Alternative Methods, JaCVAM) and irradiated with UVA light from a CL-1000L UV Crosslinker (UVP, Upland, CA, USA). Absorbance was measured using an Infinite M200 PRO (Tecan Life Sciences, Zurich, Switzerland).

[6] = Photostability in ethanol under monochromatic light of different wavelengths, LC-MS/MS; format: physicochemical; design: key: -: No decomposition; conditions: 1 µM in ethanol, 25 °C
Protocol: To evaluate the effect of irradiation wavelength on photostability of MK-4 and MKH-ester derivatives, 1 μM solutions of MK-4, MKH-DMG, and MKH-SUC in ethanol were irradiated with a xenon light source monochromatic light at 279, 341, 373, 404, or 435 nm, and the concentration of each compound was measured by LC-MS/MS. The log of concentration of each compound was plotted against irradiation energy (Figure 3), and the rates and half-life energies of degradation were obtained from slopes (Table 2). […] Hydrolytic degradations of MKH-DMG and MKH-SUC to their corresponding monoesters were accelerated only at the short wavelength of 279 nm (Figure 3B,C).
(§2) Solutions of MK-4 and MKH derivatives in ethanol (1 µM) were irradiated with artificial sunlight (SOLAX 100 W XC-100 B, Seric Ltd., Tokyo, Japan) at 12,000 lx in quartz cells. Illuminance was measured using a digital luminometer (LX-1108, Mother Tool). Irradiation samples (1 µM in ethanol) were irradiated with artificial sunlight at 12,000 lx, and with monochromatic light (279, 341, 373, 404, and 435 nm) using a multi-wavelength irradiation spectrometer (MM 3, Bunkoukeiki Co., Ltd., Tokyo, Japan). Irradiation intensity was measured using an irradiation energy measurement power meter (MM 3, Bunkoukeiki Co., Ltd.).
(§3) LC-MS/MS was performed using an LCMS-8050 Liquid Chromatograph Mass Spectrometer (Shimadzu, Kyoto, Japan) and Shimadzu HPLC System (system controller (CBM-20A), pump (LD-20AD), degasser (DGU-20As), UV detector (SPD-20A), and auto injector (SIL-20AC HT)). Separations were performed on a CAPCELL PAK C18 UG120 (3 μm, 2.0 mm × 100 mm, Shiseido Co., Ltd., Tokyo, Japan) using a mobile phase of 10 mmol/L ammonium acetate and 0.1% acetic acid in methanol and water (97:3) at a flow rate of 0.4 mL/min. Column temperature was maintained at 40 °C. The mass spectrometer was equipped with an electrospray ionization and was run in positive ion mode. Identification and quantitation were based on MS/MS-multiple reaction monitoring mode using transition ions as follows: m/z 445 → 187 for the [M+H]^+ MK-4 adduct, m/z 445 → 187 for the [M + H]^+ chromenol adduct, 619 → 58 for the [M + H]^+ MKH-DMG adduct, m/z 532 → 58 for the [M + H]^+ MKH-mono-DMG adduct, m/z 664 → 187 for the [M + H]^+ MKH-SUC adduct, m/z 564 → 187 for the [M + H]^+ MKH-mono-SUC adduct, and m/z 461 → 81 for the [M + H]^+ MKO adduct.

[7] = Photostability in ethanol under artificial sunlight (12,000 lx), LC-MS/MS; format: physicochemical; conditions: for main degradation product: sunlight irradiation (MKH-SUC also under shading); for photostability relative to MK-4: ethanol; for half-life at 1 µM: ethanol solution in quartz cells, read-out: half-life (t1/2) of degradation (converted)
Protocol: The relative irradiance of artificial sunlight at wavelengths of 300 to 800 nm is almost equal to that of natural sunlight, according to the manufacturer. […] MKH-SUC concentration decreased according to an apparent first order rate both with and without shading, although the rate of decrease was accelerated without shading. MKH-DMG and MKH-SUC were more photostable than MK-4 by ca. 50- and 3-fold, respectively.
as §2, §3

[8] = test system: cultured epidermis; design: method as in doi:10.2772/23121; conditions: UVA irradiation ref 13; cited from earlier work
[9] = 1 µM in ethanol, artificial sunlight 12,000 lx, 25 °C
[10] = artificial sunlight 12,000 lx, 25 °C
[11] = 1 µM in ethanol, shading (covered with aluminum foil during irradiation), 25 °C

| intracellular ROS level [4] | singlet oxygen generation [5] | rate constant (k) of degradation ([6]; monochromatic light 279 nm) | rate constant (k) of degradation ([6]; monochromatic light 341 nm) | rate constant (k) of degradation ([6]; monochromatic light 373 nm) | rate constant (k) of degradation ([6]; monochromatic light 404 nm) | rate constant (k) of degradation ([6]; monochromatic light 435 nm) | apparent first order rate constant (k) of degradation [7, 9] | main degradation product ([7]; 1 µM in ethanol) | photostability relative to MK-4 [7, 10] | half-life at 1 µM [7, 9] | SMILES | cell viability [1] | delivery of MKH into HCC cells [3] | also measured |
| --- | --- | --- | --- | --- | --- | --- | --- | --- | --- | --- | --- | --- | --- | --- |
| no significant changes | little generation of singlet oxygen | 0.146 J^−1·cm^2 | - ^b | - ^b | - ^b | - ^b | 0.167 h⁻¹ | MKH-mono-DMG | ca. 50 fold | 249 min | CC(C)=CCC/C(C)=C/CC/C(C)=C/CC/C(C)=C/Cc1c(C)c(OC(=O)CN(C)C)c2ccccc2c1OC(=O)CN(C)C [MKH-DMG, menahydroquinone-4 1,4-bis-N,N-dimethylglycinate hydrochloride] | unaffected | more effectively than MK-4 | partition coefficient (log P) [2]: 3.66; half-life energy (E1/2) of degradation ([6]; monochromatic light 341 nm): - ^b; half-life energy (E1/2) of degradation ([6]; monochromatic light 373 nm): - ^b; half-life energy (E1/2) of degradation ([6]; monochromatic light 404 nm): - ^b; half-life energy (E1/2) of degradation ([6]; monochromatic light 435 nm): - ^b; concentration change under shading ([7]; 1 µM in ethanol, shading, 25 °C): unchanged under shading |
| no significant changes | little generation of singlet oxygen | 0.110 J^−1·cm^2 | 0.069 J^−1·cm^2 | 0.059 J^−1·cm^2 | 0.061 J^−1·cm^2 | 0.068 J^−1·cm^2 | 2.796 h⁻¹ | MKH-mono-SUC | ~3 fold | 14.9 min | CC(C)=CCC/C(C)=C/CC/C(C)=C/CC/C(C)=C/Cc1c(C)c(OC(=O)CCC(=O)O)c2ccccc2c1OC(=O)CCC(=O)O [MKH-SUC, menahydroquinone-4 1,4-bis-hemisuccinate] | unaffected | more effectively than MK-4 | apparent first order rate constant (k) of degradation [7, 11]: 0.883 h⁻¹; half-life at 1 µM [7, 11]: 47.1 min |
| – | little generation of singlet oxygen | – | – | – | – | – | – | – | – | – | COc1cc(O)c(C(=O)c2ccccc2)cc1S(=O)(=O)O [sulisobenzone, reference compound] | – | – | – |
| – | – | – | – | – | – | – | – | – | – | – | CC1=C(C/C=C(\C)CCC[C@H](C)CCC[C@H](C)CCCC(C)C)C(=O)c2ccccc2C1=O [vitamin K1] | – | – | phototoxicity against cultured epidermis [8]: exhibits phototoxicity |
